We go through 16 molecules from patent publication US10821115B2, “Compounds that inhibit Mcl-1 protein” (priority 2017, dated 2020).

Molecules are shown by their SMILES. Read-outs that look alike come from different tables or passages of the source.

Assay [1] relates to human multiple myeloma cell line, OPM-2. Description: Cell viability assay (OPM-2 10 FBS), CellTiter-Glo. The format is cell-based. The method, boiled down:
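OPM-2 cells at 3000 cells/well in RPMI 1640 with 10% FBS were exposed to serially diluted compounds for 16 h at 37 °C, 5% CO2.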
On the technique in general: In ATP-based viability assays light output follows the ATP content of the culture.

For assay [2], the target named is recombinant human Mcl-1 (residues 171-327) / Bim interaction (Homo sapiens (Human), UniProt Q07820). In words: biochemical. The format is binding. As to conditions: read-out: Mcl-1 HTRF IC50. Background: TR-FRET usually uses a lanthanide donor and a delayed reading to cut background.
Sequence of recombinant human Mcl-1 (residues 171-327) / Bim interaction (Q07820 171-327): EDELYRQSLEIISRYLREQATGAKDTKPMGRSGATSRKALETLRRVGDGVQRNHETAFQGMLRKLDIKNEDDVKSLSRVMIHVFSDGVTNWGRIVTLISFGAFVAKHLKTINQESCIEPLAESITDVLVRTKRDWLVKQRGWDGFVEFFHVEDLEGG
The mark [3] stands for this setting: read-out: OPM-2 10% FBS IC50 IP, OPM-2 cells, 10% FBS, 16 h, CellTiter-Glo.
[4] abbreviates: TR-FRET, Mcl-1(171-327) / biotin-Bim (51-76).
The mark [5] stands for this setting: Homo sapiens, OPM-2, 16 h, read-out: OPM-2 10% FBS IC50 IP, OPM-2 cells, 10% FBS, 16 h incubation.
Setting [6] is: 0.1 nM Mcl-1(171-327), 0.05 nM biotin-Bim (51-76).
Setting [7] is: Homo sapiens, OPM-2, 16 h, read-out: OPM-2 10% FBS IC50 IP, OPM-2 cells, 10% FBS, 16 h, CellTiter-Glo.

The term IC50 denotes the concentration that gives 50% inhibition.

As for `CO[C@@]1(C#CCO)/C=C/C[C@H](C)[C@@H](C)S(=O)(=O)NC(=O)c2ccc3c(c2)N(C[C@@H]2CC[C@H]21)C[C@@]1(CCCc2cc(Cl)ccc21)CO3` [Example 100345, (1S,3′R,6′R,7′S,8′E,11′S,12′R)-6-chloro-7′-(3-hydroxy-1-propyn-1-yl)-7′-methoxy-11′,12′-dimethyl-3,4-dihydro-2H,15′H-spiro[naphthalene-1,22′-[20]oxa[13]thia[1,14]diazatetracyclo [14.7.2.0~3,6~.0~19,24~]pentacosa[8,16,18,24]tetraen]-15′-one 13′,13′-dioxide], the half-inhibitory concentration (IC50) was found to be 218 nM in assay [1] (setting [3]) and 2.42 nM in assay [2] (setting [4]).

With `COCCN(C)C1CN(C[C@]2(OC)/C=C/C[C@H](C)[C@@H](C)S(=O)(=O)NC(=O)c3ccc4c(c3)N(C[C@@H]3CC[C@H]32)C[C@@]2(CCCc3cc(Cl)ccc32)CO4)C1` [Example 260, (1S,3′R,6′R,7′S,8′E,11′S,12′R)-6-chloro-7′-methoxy-7′-((3-((2-methoxyethyl)(methyl)amino)-1-azetidinyl)methyl)-11′,12′-dimethyl-3,4-dihydro-2H,15′H-spiro[naphthalene-1,22′-[20]oxa[13]thia[1,14]diazatetracyclo [14.7.2.0~3,6~.0~19,24~]pentacosa[8,16,18,24]tetraen]-15′-one 13′,13′-dioxide], the IC50 in assay [1] (setting [5]) was found to be 103 nM; in assay [2] (setting [6]), 0.083 nM.

Consider `C[C@@H]1[C@@H](C)C/C=C/[C@@](O)(C#CCN2CCS(=O)(=O)CC2)[C@@H]2CC[C@H]2CN2C[C@@]3(CCCc4cc(Cl)ccc43)COc3ccc(cc32)C(=O)NS1(=O)=O` [Example 100388, (1S,3′R,6′R,7′S,8′E,11′S,12′R)-6-chloro-7′-(3-(1,1-dioxido-4-thiomorpholinyl)-1-propyn-1-yl)-7′-hydroxy-11′,12′-dimethyl-3,4-dihydro-2H,15′H-spiro[naphthalene-1,22′-[20]oxa[13]thia[1,14]diazatetracyclo [14.7.2.0~3,6~.0~19,24~]pentacosa[8,16,18,24]tetraen]-15′-one 13′,13′-dioxide], for which the IC50 in assay [1] (setting [3]) is 2160 nM; in assay [2] (setting [4]), 1.17 nM.

With `COCCN1CCN(C[C@@]2(OC)/C=C/C[C@H](C)[C@@H](C)S(=O)(=O)NC(=O)c3ccc4c(c3)N(C[C@@H]3CC[C@H]32)C[C@@]2(CCCc3cc(Cl)ccc32)CO4)CC1=O` [Example 54, (1S,3′R,6′R,7′R,8′E,11′S,12′R)-6-chloro-7′-methoxy-7′-((4-(2-methoxyethyl)-3-oxo-1-piperazinyl)methyl)-11′,12′-dimethyl-3,4-dihydro-2H,15′H-spiro[naphthalene-1,22′-[20]oxa[13]thia[1,14]diazatetracyclo [14.7.2.0~3,6~.0~19,24~]pentacosa[8,16,18,24]tetraen]-15′-one 13′,13′-dioxide], the IC50 in assay [1] (setting [5]) is 129 nM; in assay [2] (setting [6]) it was 0.173 nM.

Regarding `CO[C@@]1(CN2CCN(c3ccncc3)CC2)/C=C/C[C@H](C)[C@@H](C)S(=O)(=O)NC(=O)c2ccc3c(c2)N(C[C@@H]2CC[C@H]21)C[C@@]1(CCCc2cc(Cl)ccc21)CO3` [Example 254, (1S,3′R,6′R,7′S,8′E,11′S,12′R)-6-chloro-7′-methoxy-11′,12′-dimethyl-7′-((4-(4-pyridinyl)-1-piperazinyl)methyl)-3,4-dihydro-2H,15′H-spiro[naphthalene-1,22′-[20]oxa[13]thia[1,14]diazatetracyclo [14.7.2.0~3,6~.0~19,24~]pentacosa[8,16,18,24]tetraen]-15′-one 13′,13′-dioxide], the IC50 in assay [1] (setting [5]) amounted to 544 nM; in assay [2] (setting [6]), 1.2 nM.

For the molecule `C[C@@H]1[C@@H](C)CCC[C@@](O)(CCN2CCCCC2)[C@@H]2CC[C@H]2CN2C[C@@]3(CCCc4cc(Cl)ccc43)COc3ccc(cc32)C(=O)NS1(=O)=O` [Example 100091, (1S,3′R,6′R,7′R,11′S,12′R)-6-chloro-7′-hydroxy-11′,12′-dimethyl-7′-(2-(1-piperidinyl)ethyl)-3,4-dihydro-2H,15′H-spiro[naphthalene-1,22′-[20]oxa[13]thia[1,14]diazatetracyclo [14.7.2.0~3,6~.0~19,24~]pentacosa[16,18,24]trien]-15′-one 13′,13′-dioxide], the IC50 was 1350 nM in assay [1] (setting [7]) and 1.2 nM in assay [2] (setting [4]).

With `C[C@@H]1[C@@H](C)C/C=C/[C@@](O)([C@@H](C)C(=O)N(C)C)[C@@H]2CC[C@H]2CN2C[C@@]3(CCCc4cc(Cl)ccc43)COc3ccc(cc32)C(=O)NS1(=O)=O` (single isomer, unassigned) [Example 100126], the figures for the IC50 in assay [1] (setting [3]) and in assay [2] (setting [4]) were 41 nM and 0.183 nM, respectively.

Turning to `CO[C@@]1(C(C)(C)O)/C=C/C[C@H](C)[C@@H](C)S(=O)(=O)NC(=O)c2ccc3c(c2)N(C[C@@H]2CC[C@H]21)C[C@@]1(CCCc2cc(Cl)ccc21)CO3` [Example 100404, (1S,3′R,6′R,7′S,8′E,11′S,12′R)-6-chloro-7′-(2-hydroxy-2-propanyl)-7′-methoxy-11′,12′-dimethyl-3,4-dihydro-2H,15′H-spiro[naphthalene-1,22′-[20]oxa[13]thia[1,14]diazatetracyclo [14.7.2.0~3,6~.0~19,24~]pentacosa[8,16,18,24]tetraen]-15′-one 13′,13′-dioxide], the IC50 in assay [1] (setting [7]) worked out at 8150 nM; in assay [2] (setting [4]), 2.55 nM.

On to `CO[C@]1(CN2CC[C@@H]3CCCC[C@H]3C2)/C=C/C[C@H](C)[C@@H](C)S(=O)(=O)NC(=O)c2ccc3c(c2)N(C[C@@H]2CC[C@H]21)C[C@@]1(CCCc2cc(Cl)ccc21)CO3` (single isomer, unassigned) [Example 90], for which the IC50 in assay [1] (read-out: OPM-2 10% FBS IC50 IP, OPM-2 cells, 10% FBS, 16 h incubation) was 8980 nM; in assay [2] (setting [6]) it was 4.66 nM.

As for `C=CC[C@]1(O)CCC[C@H](C)[C@@H](C)S(=O)(=O)NC(=O)c2ccc3c(c2)N(C[C@@H]2CC[C@H]21)C[C@@]1(CCCc2cc(Cl)ccc21)CO3` (single isomer, unassigned) [Example 100273], the IC50 in assay [1] (setting [3]) turned out to be 8660 nM; in assay [2] (setting [4]) it was 5.66 nM.

Consider `C[C@@H]1[C@@H](C)C/C=C/[C@](O)(Cc2nccs2)[C@@H]2CC[C@H]2CN2C[C@@]3(CCCc4cc(Cl)ccc43)COc3ccc(cc32)C(=O)NS1(=O)=O` [Example 100246, (1S,3′R,6′R,7′R,8′E,11′S,12′R)-6-chloro-7′-hydroxy-11′,12′-dimethyl-7′-(1,3-thiazol-2-ylmethyl)-3,4-dihydro-2H,15′H-spiro[naphthalene-1,22′-[20]oxa[13]thia[1,14]diazatetracyclo [14.7.2.0~3,6~.0~19,24~]pentacosa[8,16,18,24]tetraen]-15′-one 13′,13′-dioxide], for which the IC50 stood at 114 nM in assay [1] (setting [3]) and 0.326 nM in assay [2].

Regarding `CCN1CCN(C[C@]2(OC)/C=C/C[C@H](C)[C@@H](C)S(=O)(=O)NC(=O)c3ccc4c(c3)N(C[C@@H]3CC[C@H]32)C[C@@]2(CCCc3cc(Cl)ccc32)CO4)CC1` [Example 247, (1S,3′R,6′R,7′S,8′E,11′S,12′R)-6-chloro-7′-((4-ethyl-1-piperazinyl)methyl)-7′-methoxy-11′,12′-dimethyl-3,4-dihydro-2H,15′H-spiro[naphthalene-1,22′-[20]oxa[13]thia[1,14]diazatetracyclo [14.7.2.0~3,6~.0~19,24~]pentacosa[8,16,18,24]tetraen]-15′-one 13′,13′-dioxide], the 50% inhibitory concentration (IC50) in assay [1] (setting [5]) turned out to be 107 nM; in assay [2] (setting [6]), 0.129 nM.

In the case of `C[C@@H]1[C@@H](C)CCC[C@](O)(CC(=S)N(C)C)[C@@H]2CC[C@H]2CN2C[C@@]3(CCCc4cc(Cl)ccc43)COc3ccc(cc32)C(=O)NS1(=O)=O` (single isomer, unassigned) [Example 100172], the IC50 in assay [1] (setting [3]) was 1570 nM; in assay [2] (setting [4]) it was 1.29 nM.

As to `C[C@@H]1[C@@H](C)CCC[C@](O)(CC(=O)O)[C@@H]2CC[C@H]2CN2C[C@@]3(CCCc4cc(Cl)ccc43)COc3ccc(cc32)C(=O)NS1(=O)=O` [Example 100097, ((1S,3′R,6′R,7′S,11′S,12′R)-6-chloro-7′-hydroxy-11′,12′-dimethyl-13′,13′-dioxido-15′-oxo-3,4-dihydro-2H-spiro[naphthalene-1,22′-[20]oxa[13]thia[1,14]diazatetracyclo [14.7.2.0~3,6~.0~19,24~]pentacosa[16,18,24]trien]-7′-yl)acetic acid], the IC50 was 5230 nM in assay [1] (setting [7]) and 0.081 nM in assay [2] (setting [4]).

For `CO[C@]1(CN2CCN(CC(F)F)CC2)/C=C/C[C@H](C)[C@@H](C)S(=O)(=O)NC(=O)c2ccc3c(c2)N(C[C@@H]2CC[C@H]21)C[C@@]1(CCCc2cc(Cl)ccc21)CO3` [Example 95, (1S,3′R,6′R,7′R,8′E,11′S,12′R)-6-chloro-7′-((4-(2,2-difluoroethyl)-1-piperazinyl)methyl)-7′-methoxy-11′,12′-dimethyl-3,4-dihydro-2H,15′H-spiro[naphthalene-1,22′-[20]oxa[13]thia[1,14]diazatetracyclo [14.7.2.0~3,6~.0~19,24~]pentacosa[8,16,18,24]tetraen]-15′-one 13′,13′-dioxide], the IC50 in assay [1] (setting [5]) is 338 nM; in assay [2] (setting [6]), 0.189 nM.

On to `C=CCOC[C@]1(O)/C=C/C[C@H](C)[C@@H](C)S(=O)(=O)NC(=O)c2ccc3c(c2)N(C[C@@H]2CC[C@H]21)C[C@@]1(CCCc2cc(Cl)ccc21)CO3` (single isomer, unassigned) [Example 100496], for which the half-inhibitory concentration (IC50) in assay [1] (setting [7]) came out at 5060 nM; in assay [2] (setting [4]) it was 2.67 nM.
